Experimental data from US20110117055A1, “Methods of Treating Hepatitis C Virus with Oxoacetamide Compounds” (priority 2009, published 2011).

Each compound was assayed on HCV2aChLuc virus (assay: In vitro HCVcc entry assay: HCV2aChLuc virus infection of Huh7 cells, Renilla luciferase read-out). Conditions: Hepatitis C virus, Huh-7, read-out: Activity class (IC50), tested according to the method of Example 3.
Type: cell-based, HCV genotype 2a

| Structure (SMILES) | IC50 [nM] |
| --- | --- |
| COc1c(NC(=O)C(=O)c2ccc(OCCN3CCOCC3)c3ccccc23)cc(C(C)(C)C)cc1S(=O)(=O)N(C)C [Compound 2, N-(5-tert-butyl-3-(N,N-dimethylsulfamoyl)-2-methoxyphenyl)-2-(4-(2-morpholinoethoxy)naphthalen-1-yl)-2-oxoacetamide] | < 5 |
| COc1c(NC(=O)C(=O)c2ccc(OCCN(CCO)CCO)c3ccccc23)cc(C(C)(C)C)cc1NS(C)(=O)=O [Compound 3, 2-(4-(2-(bis(2-hydroxyethyl)amino)ethoxy)-naphthalen-1-yl)-N-(5-tert-butyl-2-methoxy-3-(methylsulfonamido)phenyl)-2-oxoacetamide] | < 5 |
| COc1c(C#N)cc(C(C)(C)C)cc1NC(=O)C(=O)c1ccc(OCCN2CCOCC2)c2ccccc12 [Compound 4, N-(5-tert-butyl-3-cyano-2-methoxyphenyl)-2-(4-(2-morpholinoethoxy)naphthalen-1-yl)-2-oxoacetamide] | < 5 |
| CNC(=O)c1cc(C(C)(C)C)cc(NC(=O)C(=O)c2ccc(OCCN3CCOCC3)c3ccccc23)c1OC [Compound 6, 5-tert-butyl-2-methoxy-N-methyl-3-(2-(4-(2-morpholinoethoxy)naphthalen-1-yl)-2-oxoacetamido)benzamide] | < 5 |
| CCNC(=O)c1cc(C(C)(C)C)cc(NC(=O)C(=O)c2ccc(OCCN3CCOCC3)c3ccccc23)c1OC [Compound 7, 5-tert-butyl-N-ethyl-2-methoxy-3-(2-(4-(2-morpholinoethoxy)naphthalen-1-yl)-2-oxoacetamido)benzamide] | < 5 |
| CCNC(=O)c1cc(C(C)(C)C)cc(NC(=O)C(=O)c2ccc(OC)c3ccccc23)c1OC [Compound 8, 5-tert-butyl-N-ethyl-2-methoxy-3-(2-(4-methoxynaphthalen-1-yl)-2-oxoacetamido)benzamide] | < 5 |
| COCCNC(=O)c1cc(C(C)(C)C)cc(NC(=O)C(=O)c2ccc(OCCN3CCOCC3)c3ccccc23)c1OC [Compound 9, 5-tert-butyl-2-methoxy-N-(2-methoxyethyl)-3-(2-(4-(2-morpholinoethoxy)naphthalen-1-yl)-2-oxoacetamido)benzamide] | < 5 |
| COc1c(NC(=O)C(=O)c2ccc(OCCN3CCOCC3)c3ccccc23)cc(C(C)(C)C)cc1C(=O)Nc1ccccn1 [Compound 10, 5-tert-butyl-2-methoxy-3-(2-(4-(2-morpholinoethoxy)naphthalen-1-yl)-2-oxoacetamido)-N-(pyridin-2-yl)benzamide] | < 5 |
| COC(=O)c1sc(C(C)(C)C)cc1NC(=O)C(=O)c1ccc(OCCN2CCOCC2)c2ccccc12 [Compound 11, methyl 5-tert-butyl-3-(2-(4-(2-morpholinoethoxy)naphthalen-1-yl)-2-oxoacetamido)thiophene-2-carboxylate] | < 5 |
| CNC(=O)c1sc(C(C)(C)C)cc1NC(=O)C(=O)c1ccc(OCCN2CCOCC2)c2ccccc12 [Compound 12, 5-tert-butyl-N-methyl-3-(2-(4-(2-morpholinoethoxy)naphthalen-1-yl)-2-oxoacetamido)thiophene-2-carboxamide] | < 5 |
| COc1c(NC(=O)C(=O)c2ccc(OCCN3CCOCC3)c3ccccc23)cc(C)cc1NS(C)(=O)=O [Compound 13, N-(2-methoxy-5-methyl-3-(methylsulfonamido)phenyl)-2-(4-(2-morpholinoethoxy)naphthalen-1-yl)-2-oxoacetamide] | 5 to 500 |
| COc1ccc(C(C)(C)C)cc1NC(=O)C(=O)c1ccc(OC)c2ccccc12 [Compound 14, N-(5-tert-butyl-2-methoxyphenyl)-2-(4-methoxynaphthalen-1-yl)-2-oxoacetamide] | < 5 |
| COc1ccc(C2CCCCC2)cc1NC(=O)C(=O)c1ccc(OCCN2CCOCC2)c2ccccc12 [Compound 15, N-(5-cyclohexyl-2-methoxyphenyl)-2-(4-(2-morpholinoethoxy)naphthalen-1-yl)-2-oxoacetamide] | < 5 |
| COc1ccc(C(C)(C)c2ccccc2)cc1NC(=O)C(=O)c1ccc(OCCN2CCOCC2)c2ccccc12 [Compound 16, N-(2-methoxy-5-(2-phenylpropan-2-yl)phenyl)-2-(4-(2-morpholinoethoxy)naphthalen-1-yl)-2-oxoacetamide] | < 5 |
| COc1c(NC(=O)C(=O)c2ccc(OC)c3ccccc23)cc(C(C)(C)C)cc1C(=O)NCC1CC1 [Compound 17, 5-tert-butyl-N-(cyclopropylmethyl)-2-methoxy-3-(2-(4-methoxynaphthalen-1-yl)-2-oxoacetamido)benzamide] | < 5 |
| CCCNC(=O)c1cc(C(C)(C)C)cc(NC(=O)C(=O)c2ccc(OCCN3CCOCC3)c3ccccc23)c1OC [Compound 18, 5-tert-butyl-2-methoxy-3-(2-(4-(2-morpholinoethoxy)naphthalen-1-yl)-2-oxoacetamido)-N-propylbenzamide] | < 5 |
| CCOc1ccc(C(=O)C(=O)Nc2cc(C(C)(C)C)ccc2OC)c2ccccc12 [Compound 19, N-(5-tert-butyl-2-methoxyphenyl)-2-(4-ethoxynaphthalen-1-yl)-2-oxoacetamide] | < 5 |
| COc1ccc(C(C)(C)C)cc1NC(=O)C(=O)c1ccc(OC(C)C)c2ccccc12 [Compound 20, N-(5-tert-butyl-2-methoxyphenyl)-2-oxo-2-[4-(propan-2-yloxy)naphthalen-1-yl]acetamide] | < 5 |
| COc1c(NC(=O)C(=O)c2ccc(OCCN3CCOCC3)c3ccccc23)cc(C(C)(C)C)cc1NC(=O)N1CCCC1 [Compound 22] | 5 to 500 |
| CCC(C)(C)c1cc(NC(=O)C(=O)c2ccc(OCCN3CCOCC3)c3ccccc23)c(OC)c(C(C)(C)CC)c1 [Compound 23] | 5 to 500 |
| COc1c(NC(=O)C(=O)c2ccc(OCCN3CCOCC3)c3ccccc23)cc(C(C)(C)C)cc1C(=O)N1CCOCC1 [Compound 24] | 5 to 500 |
| COc1c(NC(=O)C(=O)c2ccc(OCCN3CCOCC3)c3ccccc23)cc(C(C)(C)C)cc1C(=O)N1CCCCC1 [Compound 25] | 5 to 500 |
| COc1c(NC(=O)C(=O)c2ccc(OCCN3CCOCC3)c3ccccc23)cc(C(C)(C)C)cc1C(=O)N1CCNC(=O)C1 [Compound 26] | 5 to 500 |
| CC(C)(C)c1cccc(NC(=O)C(=O)c2ccc(OCCN3CCOCC3)c3ccccc23)c1 [Compound 27] | > 500 |
| COc1ccc(C(F)(F)F)cc1NC(=O)C(=O)c1ccc(OCCN2CCOCC2)c2ccccc12 [Compound 28] | > 500 |
| CC(C)(C)c1cc(CN2CCOCC2)c(O)c(NC(=O)C(=O)c2ccc(OCCN3CCOCC3)c3ccccc23)c1 [Compound 29] | > 500 |

| Structure (SMILES) | IC50 [nM] |
| --- | --- |
| Cc1cc(C(C)(C)C)cc(NC(=O)C(=O)c2ccc(OCCN3CCOCC3)c3ccccc23)c1O [Compound 30] | > 500 |
| COc1c(C)cc(C(C)(C)C)cc1NC(=O)C(=O)c1ccc(OCCN2CCOCC2)c2ccccc12 [Compound 31] | > 500 |
| CC(C)(C)c1ccc(NC(=O)C(=O)c2ccc(OCCN3CCOCC3)c3ccccc23)cc1 [Compound 32] | > 500 |
| CC(C)(C)c1cc(NC(=O)C(=O)c2ccc(OCCN3CCOCC3)c3ccccc23)c(O)c(C(N)=O)c1 [Compound 33] | > 500 |
| CC(C)(C)c1cc(NC(=O)C(=O)c2ccc(OCCN3CCOCC3)c3ccccc23)n(-c2ccccc2)n1 [Compound 34] | > 500 |
| COc1ccc(-n2nc(C(C)(C)C)cc2NC(=O)C(=O)c2ccc(OCCN3CCOCC3)c3ccccc23)cc1 [Compound 35] | > 500 |
| Cc1ccc(-n2nc(C(C)(C)C)cc2NC(=O)C(=O)c2ccc(OCCN3CCS(=O)(=O)CC3)c3ccccc23)cc1 [Compound 36] | > 500 |
| Cc1ccc(-n2nc(C(C)(C)C)cc2NC(=O)C(=O)c2ccc(OCCN3CC[S+]([O-])CC3)c3ccccc23)cc1 [Compound 37] | > 500 |
| Cc1ccc(-n2nc(C(C)(C)C)cc2NC(=O)C(=O)c2ccc(OCCN3CCCOCC3)c3ccccc23)cc1 [Compound 38] | > 500 |
| Cc1ccc(-n2nc(C(C)(C)C)cc2NC(=O)C(=O)c2ccc(CCN3CCNCC3)c3ccccc23)cc1 [Compound 39] | > 500 |
| CCOc1ccc(C(C)(C)C)cc1NC(=O)C(=O)c1ccc(OCCN2CCOCC2)c2ccccc12 [Compound 41] | > 500 |
| CC(C)Oc1ccc(C(C)(C)C)cc1NC(=O)C(=O)c1ccc(OCCN2CCOCC2)c2ccccc12 [Compound 42] | > 500 |
| CC(C)(C)c1ccccc1NC(=O)C(=O)c1ccc(OCCN2CCOCC2)c2ccccc12 [Compound 43] | > 500 |
| CC(C)(C)c1cc(NC(=O)C(=O)c2ccc(OCCN3CCOCC3)c3ccccc23)[nH]n1 [Compound 44] | > 500 |
| Cc1cc(-n2nc(C(C)(C)C)cc2NC(=O)C(=O)c2ccc(OCCN3CCOCC3)c3ccccc23)ccc1F [Compound 45] | > 500 |
| CC(=O)n1nc(C(C)(C)C)cc1NC(=O)C(=O)c1ccc(OCCN2CCOCC2)c2ccccc12 [Compound 46] | > 500 |
| CC(C)(C)c1cc(C(F)(F)F)nc(NC(=O)C(=O)c2ccc(OCCN3CCOCC3)c3ccccc23)n1 [Compound 47] | > 500 |
| CC(C)(C)c1cc(N)nc(NC(=O)C(=O)c2ccc(OCCN3CCOCC3)c3ccccc23)n1 [Compound 48] | > 500 |
| Cc1cccc(-n2nc(C(C)(C)C)cc2NC(=O)C(=O)c2ccc(OCCN3CCOCC3)c3ccccc23)c1C [Compound 49] | > 500 |
| Cn1nc(C(C)(C)C)cc1NC(=O)C(=O)c1ccc(OCCN2CCOCC2)c2ccccc12 [Compound 50] | > 500 |
| COc1c(NC(=O)C(=O)c2ccc(OCCN3CCN(C)CC3)c3ccccc23)cc(C(C)(C)C)cc1NS(C)(=O)=O [Compound 51] | > 500 |
| CCOC(=O)N1CCN(CCOc2ccc(C(=O)C(=O)Nc3cc(C(C)(C)C)cc(NS(C)(=O)=O)c3OC)c3ccccc23)CC1 [Compound 52] | 5 to 500 |
| COc1c(NC(=O)C(=O)c2ccc(OCCN3CCNC(=O)C3)c3ccccc23)cc(C(C)(C)C)cc1NS(C)(=O)=O [Compound 53] | > 500 |
| COc1c(NC(=O)C(=O)c2ccc(OCCN3CCN(C(C)=O)CC3)c3ccccc23)cc(C(C)(C)C)cc1NS(C)(=O)=O [Compound 54] | 5 to 500 |
| COc1c(NC(=O)C(=O)c2ccc(OCCn3ccnc3)c3ccccc23)cc(C(C)(C)C)cc1NS(C)(=O)=O [Compound 55] | 5 to 500 |
